Results: the supplement of paper PMC10307832

Assays:
Assay in all cases: relative viability (nuclei count vs DMSO), 5 days (fraction); higher = more cells survive
NCI-H2342 = tested on: NCI-H2342
Summary of the method: (§1)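 Medians of duplicate plates are given as relative viability. That measure is the nuclei count in treated wells divided by the count in vehicle wells. Counts were taken on 4× images of lung cancer cell lines in 1536-well plates, 5 days after pin-tool dosing the day after seeding with one drug alone or a fixed anchor-drug dose plus five library-drug doses (not always all listed) in √10 steps.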

COR-L23 = tested on: COR-L23
Summary of the method: as §1

NCI-H661 = tested on: NCI-H661
Summary of the method: as §1

NCI-H1651 = tested on: NCI-H1651
Summary of the method: as §1

LXF-289 = tested on: LXF-289
Summary of the method: as §1

NCI-H1915 = tested on: NCI-H1915
Summary of the method: as §1

NCI-H520 = tested on: NCI-H520
Summary of the method: as §1

ABC-1 = tested on: ABC-1
Summary of the method: as §1

NCI-H2347 = tested on: NCI-H2347
Summary of the method: as §1

COR-L 105 = tested on: COR-L 105
Summary of the method: as §1

LCLC-97TM1 = tested on: LCLC-97TM1
Summary of the method: as §1

NCI-H460 = tested on: NCI-H460
Summary of the method: as §1

CAL-12T = tested on: CAL-12T
Summary of the method: as §1

HOP-62 = tested on: HOP-62
Summary of the method: as §1

NCI-H838 = tested on: NCI-H838
Summary of the method: as §1

NCI-H1993 = tested on: NCI-H1993
Summary of the method: as §1

NCI-H441 = tested on: NCI-H441
Summary of the method: as §1

NCI-H522 = tested on: NCI-H522
Summary of the method: as §1

NCI-H1437 = tested on: NCI-H1437
Summary of the method: as §1

NCI-H2023 = tested on: NCI-H2023
Summary of the method: as §1

NCI-H2009 = tested on: NCI-H2009
Summary of the method: as §1

PC-3 [JPC-3] = tested on: PC-3 [JPC-3]
Summary of the method: as §1

A-427 = tested on: A-427
Summary of the method: as §1

## Oc1nc(-c2ccc(C(F)(F)F)cc2)nc2c1CSCC2 [XAV939] + Cc1nc(Nc2ncc(C(=O)Nc3c(C)cccc3Cl)s2)cc(N2CCN(CCO)CC2)n1 [Dasatinib] (partner 0.075 µM)
NCI-H2342; first compound 0.08 µM
  relative viability: 0.309
NCI-H2342; first compound 0.253 µM
  relative viability: 0.285
NCI-H2342; first compound 0.8 µM
  relative viability: 0.326
NCI-H2342; first compound 2.53 µM
  relative viability: 0.254
COR-L23; first compound 0.08 µM
  relative viability: 0.461
COR-L23; first compound 0.253 µM
  relative viability: 0.424
COR-L23; first compound 0.8 µM
  relative viability: 0.505
COR-L23; first compound 2.53 µM
  relative viability: 0.444
NCI-H661; first compound 0.08 µM
  relative viability: 1
NCI-H661; first compound 0.253 µM
  relative viability: 0.851
NCI-H661; first compound 0.8 µM
  relative viability: 0.812
NCI-H661; first compound 2.53 µM
  relative viability: 0.637
NCI-H1651; first compound 0.08 µM
  relative viability: 0.389
NCI-H1651; first compound 0.253 µM
  relative viability: 0.366
NCI-H1651; first compound 0.8 µM
  relative viability: 0.362
NCI-H1651; first compound 2.53 µM
  relative viability: 0.401
LXF-289; first compound 0.08 µM
  relative viability: 0.179
LXF-289; first compound 0.253 µM
  relative viability: 0.167
LXF-289; first compound 0.8 µM
  relative viability: 0.178
LXF-289; first compound 2.53 µM
  relative viability: 0.139
NCI-H1915; first compound 0.08 µM
  relative viability: 0.353
NCI-H1915; first compound 0.253 µM
  relative viability: 0.214
NCI-H1915; first compound 0.8 µM
  relative viability: 0.311
NCI-H1915; first compound 2.53 µM
  relative viability: 0.298
NCI-H520; first compound 0.08 µM
  relative viability: 0.179
NCI-H520; first compound 0.253 µM
  relative viability: 0.17
NCI-H520; first compound 0.8 µM
  relative viability: 0.152
NCI-H520; first compound 2.53 µM
  relative viability: 0.193
ABC-1; first compound 0.08 µM
  relative viability: 0.546
ABC-1; first compound 0.253 µM
  relative viability: 0.534
ABC-1; first compound 0.8 µM
  relative viability: 0.467
ABC-1; first compound 2.53 µM
  relative viability: 0.415
NCI-H2347; first compound 0.08 µM
  relative viability: 0.258
NCI-H2347; first compound 2.53 µM
  relative viability: 0.335
COR-L 105; first compound 0.08 µM
  relative viability: 0.348
COR-L 105; first compound 0.253 µM
  relative viability: 0.378
COR-L 105; first compound 0.8 µM
  relative viability: 0.315
COR-L 105; first compound 2.53 µM
  relative viability: 0.273
LCLC-97TM1; first compound 0.08 µM
  relative viability: 0.981
LCLC-97TM1; first compound 0.253 µM
  relative viability: 0.851
LCLC-97TM1; first compound 0.8 µM
  relative viability: 0.964
LCLC-97TM1; first compound 2.53 µM
  relative viability: 0.977
NCI-H460; first compound 0.08 µM
  relative viability: 0.479
NCI-H460; first compound 0.253 µM
  relative viability: 0.533
NCI-H460; first compound 0.8 µM
  relative viability: 0.482
NCI-H460; first compound 2.53 µM
  relative viability: 0.467
CAL-12T; first compound 0.08 µM
  relative viability: 0.572
CAL-12T; first compound 0.253 µM
  relative viability: 0.401
CAL-12T; first compound 0.8 µM
  relative viability: 0.308
CAL-12T; first compound 2.53 µM
  relative viability: 0.211
HOP-62; first compound 0.08 µM
  relative viability: 0.738
HOP-62; first compound 0.253 µM
  relative viability: 0.659
HOP-62; first compound 0.8 µM
  relative viability: 0.621
HOP-62; first compound 2.53 µM
  relative viability: 0.396
NCI-H838; first compound 0.08 µM
  relative viability: 0.217
NCI-H838; first compound 0.253 µM
  relative viability: 0.256
NCI-H838; first compound 0.8 µM
  relative viability: 0.284
NCI-H838; first compound 2.53 µM
  relative viability: 0.212
NCI-H1993; first compound 0.08 µM
  relative viability: 0.52
NCI-H1993; first compound 0.253 µM
  relative viability: 0.52
NCI-H1993; first compound 0.8 µM
  relative viability: 0.557
NCI-H1993; first compound 2.53 µM
  relative viability: 0.535
NCI-H441; first compound 0.08 µM
  relative viability: 0.602
NCI-H441; first compound 0.253 µM
  relative viability: 0.66
NCI-H441; first compound 0.8 µM
  relative viability: 0.779
NCI-H441; first compound 2.53 µM
  relative viability: 0.536
NCI-H522; first compound 0.08 µM
  relative viability: 0.982
NCI-H522; first compound 0.253 µM
  relative viability: 0.812
NCI-H522; first compound 0.8 µM
  relative viability: 0.465
NCI-H522; first compound 2.53 µM
  relative viability: 0.779
NCI-H1437; first compound 0.08 µM
  relative viability: 0.353
NCI-H1437; first compound 0.253 µM
  relative viability: 0.488
NCI-H1437; first compound 0.8 µM
  relative viability: 0.416
NCI-H1437; first compound 2.53 µM
  relative viability: 0.654
NCI-H2023; first compound 0.08 µM
  relative viability: 0.512
NCI-H2023; first compound 0.253 µM
  relative viability: 0.397
NCI-H2023; first compound 0.8 µM
  relative viability: 0.334
NCI-H2023; first compound 2.53 µM
  relative viability: 0.336
NCI-H2009; first compound 0.08 µM
  relative viability: 0.31
NCI-H2009; first compound 0.253 µM
  relative viability: 0.271
NCI-H2009; first compound 0.8 µM
  relative viability: 0.205
NCI-H2009; first compound 2.53 µM
  relative viability: 0.208
PC-3 [JPC-3]; first compound 0.08 µM
  relative viability: 1.09
PC-3 [JPC-3]; first compound 0.253 µM
  relative viability: 0.899
PC-3 [JPC-3]; first compound 0.8 µM
  relative viability: 0.938
PC-3 [JPC-3]; first compound 2.53 µM
  relative viability: 1.05
A-427; first compound 0.08 µM
  relative viability: 0.838
A-427; first compound 0.253 µM
  relative viability: 0.677
A-427; first compound 0.8 µM
  relative viability: 0.667
A-427; first compound 2.53 µM
  relative viability: 0.557
